The source made the active and inactive calls. No cut-off for these calls is given here.
Assays:
[1] = tested on: Rattus norvegicus; experiment: (§1) Antiarthritic activity in Freund's complete adjuvant induced Lewis rat model of arthritis assessed as reduction in RORgammat protein expression at 20 mg/kg, po administered every 24 to 48 hrs for 28 days post immunization starting from day 8 post immunization by Western blot analysis; type: functional, organism-based; settings: time 21.0 day
[2] = tested on: Rattus norvegicus; experiment: Antiarthritic activity in Freund's complete adjuvant induced Lewis rat model of arthritis assessed as reduction in IL-17 protein expression at 20 mg/kg, po administered every 24 to 48 hrs for 28 days post immunization starting from day 8 post immunization by Western blot analysis; type: functional, organism-based; settings: time 21.0 day
[3] = species: Mus musculus; experiment: Antiinflammatory activity in mouse model of cotton pellet implantation-induced granuloma; type: functional, organism-based
[4] = tested on: RAW264.7; experiment: Antiinflammatory activity against LPS-induced mouse RAW264.7 cells assessed as inhibition of phosphorylated p38 MAPK protein expression pretreated for 1 hr followed by LPS stimulation and measured after 24 hrs by Western blot analysis; type: functional, cell-based; settings: dose 2.5-10 µM, time 25.0 hrs
[5] = tested on: RAW264.7; experiment: Antiinflammatory activity in LPS-induced mouse RAW264.7 cells assessed as inhibition of PGE2 production at 10 uM pretreated for 1 hr followed by LPS stimulation and measured after 24 to 48 hrs by ELISA; type: functional, cell-based; settings: time 25-49 hrs
[6] = Hepatotoxicity in male Wistar rat assessed as effect on glutamic pyruvic transaminase level at 20 mg/kg, po administered for 3 days; type: toxicity, organism-based; settings: in vivo, 72 h, time 3 day
[7] = Toxicity in male Wistar rat assessed as gastrointestinal damage by measuring level-2 ulcers with 1 to 3 mm area at 50 mg/kg administered by gavage and measured after 6 hrs; type: organism-based; settings: in vivo, po
[8] = tested on: Rattus norvegicus; experiment: Immunomodulatory activity in Freund's complete adjuvant induced Lewis rat model of arthritis assessed as reduction in IL-17 level in serum at 20 mg/kg, po administered every 24 to 48 hrs for 28 days post immunization starting from day 8 post immunization by ELISA; type: functional, organism-based; settings: time 21.0 day
[9] = tested on: Rattus norvegicus; experiment: as §1, with “joint tissue damage by measuring reduction in inflammatory cell infiltration” for “RORgammat protein expression”, “24” for “24 to 48”, “H and E staining based” for “Western blot”; type: functional, organism-based; settings: time 21.0 day
[10] = biological target: T1, Cytosolic phospholipase A2 (Mus musculus) (UniProt P47713); experiment: Binding affinity to cPLA2 in LPS-induced mouse RAW264.7 cells assessed as thermal stability at 45 to 53 degreeC at 30 uM pretreated with LPS for 24 hrs followed by compound addition and measured after 2 hrs by CETSA; type: cell-based
T1 sequence (whole entry): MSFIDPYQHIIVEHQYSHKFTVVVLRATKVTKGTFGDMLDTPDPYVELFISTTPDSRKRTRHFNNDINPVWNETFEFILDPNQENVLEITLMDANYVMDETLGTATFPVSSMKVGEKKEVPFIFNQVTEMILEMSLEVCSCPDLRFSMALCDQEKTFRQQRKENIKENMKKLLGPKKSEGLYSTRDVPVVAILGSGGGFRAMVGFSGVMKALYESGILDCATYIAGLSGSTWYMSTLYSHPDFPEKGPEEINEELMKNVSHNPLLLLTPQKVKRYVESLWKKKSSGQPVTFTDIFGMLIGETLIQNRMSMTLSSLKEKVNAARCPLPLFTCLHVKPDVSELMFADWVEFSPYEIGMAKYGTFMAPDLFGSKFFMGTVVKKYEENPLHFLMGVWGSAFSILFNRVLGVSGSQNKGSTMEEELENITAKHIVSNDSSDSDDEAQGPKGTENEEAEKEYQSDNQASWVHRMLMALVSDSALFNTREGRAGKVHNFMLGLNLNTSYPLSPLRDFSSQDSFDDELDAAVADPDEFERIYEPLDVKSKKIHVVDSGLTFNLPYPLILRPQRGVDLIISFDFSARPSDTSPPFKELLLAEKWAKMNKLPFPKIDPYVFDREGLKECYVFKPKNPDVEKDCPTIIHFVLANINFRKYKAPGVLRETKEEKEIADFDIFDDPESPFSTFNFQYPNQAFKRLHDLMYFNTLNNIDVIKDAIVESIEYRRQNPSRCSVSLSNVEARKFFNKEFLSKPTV

[11] = tested on: Rattus norvegicus; experiment: Antiarthritic activity in Freund's complete adjuvant induced Lewis rat model of arthritis assessed as reduction in IL-6 level in serum at 20 mg/kg, po administered every 24 to 48 hrs for 28 days post immunization starting from day 8 post immunization by ELISA; type: functional, organism-based; settings: time 21.0 day
[12] = Toxicity in male Wistar rat assessed as gastrointestinal damage by measuring level-3 ulcers with >3 mm area at 100 mg/kg administered by gavage and measured after 6 hrs; type: organism-based; settings: in vivo, po
[13] = tested on: Rattus norvegicus; experiment: Antiarthritic activity in Freund's complete adjuvant induced Lewis rat model of arthritis assessed as reduction in joint deformities at 20 mg/kg, po administered every 24 to 48 hrs for 28 days post immunization starting from day 8 post immunization; type: functional, organism-based; settings: time 21.0 day
[14] = Toxicity in male Wistar rat assessed as gastrointestinal damage by measuring level-2 ulcers with 1 to 3 mm area at 100 mg/kg administered by gavage and measured after 6 hrs; type: organism-based; settings: in vivo, po
[15] = Hepatotoxicity in male Wistar rat assessed as effect on glutamic oxalacetic transaminase level at 20 mg/kg, po administered for 3 days; type: toxicity, organism-based; settings: in vivo, 72 h, time 3 day
[16] = Toxicity in male Wistar rat assessed as gastrointestinal damage by measuring level-1 ulcers with <1 mm area at 100 mg/kg administered by gavage and measured after 6 hrs; type: organism-based; settings: in vivo, po
[17] = tested on: Rattus norvegicus; experiment: Antiarthritic activity in Freund's complete adjuvant induced Lewis rat model of arthritis assessed as reduction in TNFalpha level in serum at 20 mg/kg, po administered every 24 to 48 hrs for 28 days post immunization starting from day 8 post immunization by ELISA; type: functional, organism-based; settings: time 21.0 day
[18] = tested on: Rattus norvegicus; experiment: (§2) Immunomodulatory activity in Freund's complete adjuvant induced Lewis rat model of arthritis assessed as decrease in anti-IL-17 antibody expression in knee joint slices at 20 mg/kg, po administered every 24 to 48 hrs for 28 days post immunization starting from day 8 post immunization by immunohistochemistry analysis; type: functional, organism-based; settings: time 21.0 day
[19] = Toxicity in male Wistar rat assessed as gastrointestinal damage by measuring level-3 ulcers with >3 mm area at 50 mg/kg administered by gavage and measured after 6 hrs; type: organism-based; settings: in vivo, po
[20] = Toxicity in Lewis rat model of Freund's complete adjuvant induced arthritis assessed as effect on growth by measuring reduction in body weight at 20 mg/kg, po administered every 24 to 48 hrs for 28 days post immunization starting from day 8 post immunization; type: organism-based; settings: in vivo, 504 h, time 21 day
[21] = tested on: Rattus norvegicus; experiment: Antiarthritic activity in Freund's complete adjuvant induced Lewis rat model of arthritis assessed as reduction in arthritis score at 20 mg/kg, po administered every 24 to 48 hrs for 28 days post immunization starting from day 8 post immunization; type: functional, organism-based; settings: time 21.0 day
[22] = tested on: Rattus norvegicus; experiment: as §2, with “increase” for “decrease”, “anti-IL-10” for “anti-IL-17”; type: functional, organism-based; settings: time 21.0 day
[23] = Toxicity in male Wistar rat assessed as gastrointestinal damage by measuring number of ulcers at 100 mg/kg administered by gavage and measured after 6 hrs (reference value: 0); type: organism-based; settings: in vivo, po

Activity [10]: Active
Structure (SMILES): CCCCC/C=C\C/C=C\C/C=C\C/C=C\CC/C=C(/OC(=O)C(C)c1ccc(C(=O)c2ccccc2)cc1)C(F)(F)F (stereo not drawn)
Activity [1]: Active
Activity [2]: Active
Activity [3]: Active
Activity [4]: Dose-Dependent Effect
Activity [5]: Active
Activity [6]: Non-Toxic
Activity [7]: 0%
Activity [8]: Active
Activity [9]: Active
Activity [11]: Active
Activity [12]: 0%
Activity [13]: Active
Activity [14]: 14%
Activity [15]: Non-Toxic
Activity [16]: 86%
Activity [17]: Active
Activity [18]: Active
Activity [19]: 0%
Activity [20]: Non-Toxic
Activity [21]: Active
Activity [22]: Active
Activity [23]: 7

Source: ChEMBL document CHEMBL5543086, “Discovery of novel NSAID hybrids as cPLA2/COX-2 dual inhibitors alleviating rheumatoid arthritis via inhibiting p38 MAPK pathway” (Eur J Med Chem, 2024)
